Reference: PMC9304322, “Targeting retinoic acid receptor alpha-corepressor interaction activates chaperone-mediated autophagy and protects against retinal degeneration” (Nature Communications, 2022)
Where “and” joins values, the source holds several entries; their conditions need not be identical. Identical values can stand only once. Like-named read-outs stand apart in the source and are kept apart here.

What was measured:
[1] = In vitro solubility by nephelometry; format: physicochemical; settings: in words
Procedure: In vitro solubility in the following conditions A) HBSS/HEPES 10 mM/BSA 0.1% pH 6 B) HBSS/HEPES 10 mM/BSA 0.1% pH 7.4 C) TRIS/BSA 0.1% PBS (pH 7.4 and at indicated doses were measured by Nephelometry using the NEPHELOstar Galaxy apparatus (BMG Lab Technologies). In vitro stability in human, mouse and rat liver microsomes and permeability using a bidirectional permeability assay with CaCo-2 cells (pH 6.5/7.4) assays were performed with standard methodology and analyzed by LC-MS/MS. at SIMM-SERVIER joint Biopharmacy Laboratory. ADME properties for CA39 and CA77 were predicted by QikProp (Schrödinger, LLC, Releases 2016-2020) software.

[2] = Pharmacokinetic analysis, plasma and brain;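 for Fig. 3a level, MEAN: plasma concentration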;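 for Fig. 3a level, single animals 1-3: plasma concentration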;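 for Fig. 3b level, MEAN: brain concentration in ng/g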;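 for Fig. 3b level, single animals 1-3: brain concentration in ng/g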; format: in vivo, ICR (CD-1) male mice; set-up: Fig. 3a level, single animals 1-3 / Fig. 3a level, MEAN / Fig. 3b level, single animals 1-3 / Fig. 3b level, MEAN: unit not given here; settings: for Kp at 0.083 h / Kp at 0.25 h / Kp at 0.5 h / Kp at 1 h / Kp at 2 h / Kp at 4 h / Kp at 8 h / Kp at 24 h / half-life: male, ICR (CD-1), mouse; for half-life: mice
Procedure: ICR (CD-1) male mice were fasted at least three hours and water was available ad libitum before the study. Animals were housed in a controlled environment, target conditions: temperature 18 to 29 °C, relative humidity 30 to 70%. Temperature and relative humidity was monitored daily. An electronic time-controlled lighting system was used to provide a 12 h light/12 h dark cycle. 3 mice for each indicated time point were administered 30 mg/Kg CA39 or CA77 by oral gavage or 1 mg/Kg CA39 or CA77 by intravenous injection using 30% PEG-400, 65% D5W (5% dextrose in water), 5% Tween-80 vehicle. Mice were sacrificed, and brain samples were harvested at […], 0.25 h, 0.5 h, 1 h, 2 h, 4 h, 8 h, 24 h, and analyzed for CA39 or CA77 levels using LC-MS/MS. Pharmacokinetics parameters were calculated using Phoenix WinNonlin 6.3. Experiments performed at SIMM-SERVIER joint Biopharmacy Laboratory.

Clc1ccc2c(c1)OCC(c1ccc(-c3ccccc3)cc1)=N2 [CA39]
solubility [1]: reasonable | Fig. 3a level, MEAN ([2]; IV, Time 0.083 h): 61.1254 | Fig. 3b level, MEAN ([2]; IV, Time 0.083 h): 61.1254 | Fig. 3a level, MEAN ([2]; IV, Time 0.25 h): 57.4762 | Fig. 3a level, single animals 1-3 ([2]; IV, Time 0.25 h): 71.3655 and 52.5276 and 48.5355 | Fig. 3b level, MEAN ([2]; IV, Time 0.25 h): 421.667 | Fig. 3b level, single animals 1-3 ([2]; IV, Time 0.25 h): 231 and 301 and 733 | Fig. 3a level, MEAN ([2]; IV, Time 0.5 h): 96.4163 | Fig. 3a level, single animals 1-3 ([2]; IV, Time 0.5 h): 97.156 and 95.5316 and 96.5614 | Fig. 3b level, single animals 1-3 ([2]; IV, Time 0.5 h): 253.229 and 219.924 and 96.4385 | Fig. 3a level, single animals 1-3 ([2]; IV, Time 1 h): 65.9772 and 7.434 and 72.9585 | Fig. 3b level, single animals 1-3 ([2]; IV, Time 1 h): 838.595 and 293.717 and 133.533 | Fig. 3a level, MEAN ([2]; IV, Time 2 h): 127.026 | Fig. 3a level, single animals 1-3 ([2]; IV, Time 2 h): 125.63 and 157.282 and 98.1671 | Fig. 3b level, MEAN ([2]; IV, Time 2 h): 775.11 | Fig. 3b level, single animals 1-3 ([2]; IV, Time 2 h): 875.96 and 812.85 and 636.52 | Fig. 3a level, MEAN ([2]; IV, Time 4 h): 46.5654 | Fig. 3a level, single animals 1-3 ([2]; IV, Time 4 h): 39.4404 and 55.2956 and 44.9603 | Fig. 3b level, MEAN ([2]; IV, Time 4 h): 580.088 | Fig. 3b level, single animals 1-3 ([2]; IV, Time 4 h): 625.12 and 582.925 and 532.22 | Fig. 3a level, single animals 1-3 ([2]; IV, Time 8 h): 53.1345 and 36.7923 and 35.4264 | Fig. 3b level, single animals 1-3 ([2]; IV, Time 8 h): 688.34 and 475.587 and 740.905 | Fig. 3a level, MEAN ([2]; IV, Time 24 h): 8.834 | Fig. 3a level, single animals 1-3 ([2]; IV, Time 24 h): 7.122 and 12.7302 and 6.65 | Fig. 3b level, single animals 1-3 ([2]; IV, Time 24 h): 137.514 and 156.133 and 197.201 | B/P, Brian/Plasma ([2]; P.O., Time 0.25 h, individual animals): 3.427 and 5.487 | B/P, Brian/Plasma ([2]; P.O., Time 0.5 h, individual animals): 1.74 and 1.607 | B/P, Brian/Plasma ([2]; P.O., Time 1 h, individual animals): 6.477 and 4.807 | B/P, Brian/Plasma ([2]; P.O., Time 2 h, individual animals): 7.798 and 6.806 | B/P, Brian/Plasma ([2]; P.O., Time 4 h, individual animals): 5.185 and 9.171 and 14.1075 | B/P, Brian/Plasma ([2]; P.O., Time 8 h, individual animals): 9.709 and 14.5255 | B/P, Brian/Plasma ([2]; P.O., Time 24 h, individual animals): 21.0683 | Fig. 3b level, MEAN ([2]; PO, Time 0.25 h): 110.007 | Fig. 3b level, single animals 1-3 ([2]; PO, Time 0.25 h): 143.332 and 91.145 and 95.5425 | Fig. 3b level, MEAN ([2]; PO, Time 0.5 h): 246.705 | Fig. 3b level, single animals 1-3 ([2]; PO, Time 0.5 h): 250.188 and 244.993 and 244.933 | Fig. 3b level, single animals 1-3 ([2]; PO, Time 1 h): 302.13 and 49.5585 and 266.305 | Fig. 3a level, MEAN ([2]; PO, Time 2 h): 103.157 | Fig. 3a level, single animals 1-3 ([2]; PO, Time 2 h): 111.712 and 104.237 and 93.5216 | Fig. 3b level, MEAN ([2]; PO, Time 2 h): 582.568 | Fig. 3b level, single animals 1-3 ([2]; PO, Time 2 h): 673.81 and 487.02 and 586.875 | Fig. 3a level, MEAN ([2]; PO, Time 4 h): 73.9526 | Fig. 3a level, single animals 1-3 ([2]; PO, Time 4 h): 120.568 and 63.5639 and 37.7259 | Fig. 3b level, MEAN ([2]; PO, Time 4 h): 609.462 | Fig. 3b level, single animals 1-3 ([2]; PO, Time 4 h): 583.44 and 598.755 and 646.19 | Fig. 3a level, single animals 1-3 ([2]; PO, Time 8 h): 41.4288 and 48.9846 and 51.0072 | Fig. 3b level, single animals 1-3 ([2]; PO, Time 8 h): 620.035 and 487.115 and 529.995 | Fig. 3a level, MEAN ([2]; PO, Time 24 h): 11.2914 | Fig. 3a level, single animals 1-3 ([2]; PO, Time 24 h): 11.8674 and 7.411 and 14.5959 | Fig. 3b level, MEAN ([2]; PO, Time 24 h): 118.958 | Fig. 3b level, single animals 1-3 ([2]; PO, Time 24 h): 104.574 and 178.19 and 74.11 | B/P, Brian/Plasma ([2]; i.v., Time 0.083 h, individual animals): 1.236 and 1.666 | B/P, Brian/Plasma ([2]; i.v., Time 0.25 h, individual animals): 1.735 and 1.969 | B/P, Brian/Plasma ([2]; i.v., Time 0.5 h, individual animals): 2.565 and 2.537 | B/P, Brian/Plasma ([2]; i.v., Time 1 h, individual animals): 6.667 and 3.6501 | B/P, Brian/Plasma ([2]; i.v., Time 2 h, individual animals): 3.096 and 5.978 | B/P, Brian/Plasma ([2]; i.v., Time 4 h, individual animals): 10.8283 and 14.3725 | B/P, Brian/Plasma ([2]; i.v., Time 8 h, individual animals): 13.2396 and 14.9605 | B/P, Brian/Plasma ([2]; i.v., Time 24 h, individual animals): 13.9974 | Kp at 0.083 h ([2]; brain, iv, 1 mg/Kg, i.v., Time 0.083 h, individual animals, read-out: B/P, Brian/Plasma): 1.37 | Kp at 0.083 h ([2]; brain, iv, 1 mg/Kg, i.v., Time 0.083 h, mean, read-out: B/P, Brian/Plasma, Mean): 1.42 | Kp at 0.25 h ([2]; brain, iv, 1 mg/Kg, i.v., Time 0.25 h, individual animals, read-out: B/P, Brian/Plasma): 2.01 | Kp at 0.25 h ([2]; brain, iv, 1 mg/Kg, i.v., Time 0.25 h, mean, read-out: B/P, Brian/Plasma, Mean): 1.9 | Kp at 0.5 h ([2]; brain, iv, 1 mg/Kg, i.v., Time 0.5 h, individual animals, read-out: B/P, Brian/Plasma): 2.58 | Kp at 0.5 h ([2]; brain, iv, 1 mg/Kg, i.v., Time 0.5 h, mean, read-out: B/P, Brian/Plasma, Mean): 2.56 | Kp at 1 h ([2]; brain, iv, 1 mg/Kg, i.v., Time 1 h, individual animals, read-out: B/P, Brian/Plasma): 4.58 | Kp at 1 h ([2]; brain, iv, 1 mg/Kg, i.v., Time 1 h, mean, read-out: B/P, Brian/Plasma, Mean): 4.11 | Kp at 2 h ([2]; brain, iv, 1 mg/Kg, i.v., Time 2 h, individual animals, read-out: B/P, Brian/Plasma): 5.36 | Kp at 2 h ([2]; brain, iv, 1 mg/Kg, i.v., Time 2 h, mean, read-out: B/P, Brian/Plasma, Mean): 4.81 | Kp at 4 h ([2]; brain, iv, 1 mg/Kg, i.v., Time 4 h, individual animals, read-out: B/P, Brian/Plasma): 14.8 | Kp at 4 h ([2]; brain, iv, 1 mg/Kg, i.v., Time 4 h, mean, read-out: B/P, Brian/Plasma, Mean): 13.3 | Kp at 8 h ([2]; brain, iv, 1 mg/Kg, i.v., Time 8 h, individual animals, read-out: B/P, Brian/Plasma): 11.7 | Kp at 8 h ([2]; brain, iv, 1 mg/Kg, i.v., Time 8 h, mean, read-out: B/P, Brian/Plasma, Mean): 13.3 | Kp at 24 h ([2]; brain, iv, 1 mg/Kg, i.v., Time 24 h, individual animals, read-out: B/P, Brian/Plasma): 14.7 | Kp at 24 h ([2]; brain, iv, 1 mg/Kg, i.v., Time 24 h, mean, read-out: B/P, Brian/Plasma, Mean): 14.2 | Kp at 0.25 h ([2]; brain, po, 30 mg/Kg, P.O., Time 0.25 h, individual animals, read-out: B/P, Brian/Plasma): 4.01 | Kp at 0.25 h ([2]; brain, po, 30 mg/Kg, P.O., Time 0.25 h, mean, read-out: B/P, Brian/Plasma, Mean): 4.31 | Kp at 0.5 h ([2]; brain, po, 30 mg/Kg, P.O., Time 0.5 h, individual animals, read-out: B/P, Brian/Plasma): 1.82 | Kp at 0.5 h ([2]; brain, po, 30 mg/Kg, P.O., Time 0.5 h, mean, read-out: B/P, Brian/Plasma, Mean): 1.72 | Kp at 1 h ([2]; brain, po, 30 mg/Kg, P.O., Time 1 h, individual animals, read-out: B/P, Brian/Plasma): 5.37 | Kp at 1 h ([2]; brain, po, 30 mg/Kg, P.O., Time 1 h, mean, read-out: B/P, Brian/Plasma, Mean): 5.55 | Kp at 2 h ([2]; brain, po, 30 mg/Kg, P.O., Time 2 h, individual animals, read-out: B/P, Brian/Plasma): 7.84 | Kp at 2 h ([2]; brain, po, 30 mg/Kg, P.O., Time 2 h, mean, read-out: B/P, Brian/Plasma, Mean): 7.48 | Kp at 4 h ([2]; brain, po, 30 mg/Kg, P.O., Time 4 h, mean, read-out: B/P, Brian/Plasma, Mean): 9.49 | Kp at 8 h ([2]; brain, po, 30 mg/Kg, P.O., Time 8 h, individual animals, read-out: B/P, Brian/Plasma): 16.6 | Kp at 8 h ([2]; brain, po, 30 mg/Kg, P.O., Time 8 h, mean, read-out: B/P, Brian/Plasma, Mean): 13.6 | Kp at 24 h ([2]; brain, po, 30 mg/Kg, P.O., Time 24 h, individual animals, read-out: B/P, Brian/Plasma): 11.6 | Kp at 24 h ([2]; brain, po, 30 mg/Kg, P.O., Time 24 h, mean, read-out: B/P, Brian/Plasma, Mean): 17.9 | half-life ([2]; brain, IV 1 mg/kg, read-out: Half-life in brain (converted)): 8 h | half-life ([2]; brain, PO 30 mg/kg, read-out: Half-life in brain (converted)): 10 h | half-life ([2]; plasma, IV 1 mg/kg, read-out: Half-life in plasma (converted)): 8.2 h | half-life ([2]; plasma, PO 30 mg/kg, read-out: Half-life in plasma (converted)): 7.5 h
